Experimental findings from ChEMBL document CHEMBL6127073, “Utilizing artificial intelligence for precision exploration of N protein targeting phenanthridine sars-cov-2 inhibitors: A novel approach” (Eur J Med Chem, 2024) are described below.

The target of series [1] is T1, Nucleoprotein (Severe acute respiratory syndrome coronavirus 2, UniProt P0DTC9). Nature of the series: Binding affinity to SARS-CoV-2 N-pro assessed as dissociation constant by SPR analysis. In general terms: Surface plasmon resonance follows binding to a sensor surface in real time, without labels.
In series [2] the test system is SARS-CoV-2. As to the kind of experiment: Antiviral activity against SARS-CoV-2 107 infected in African green monkey Vero E6 cells assessed as inhibition of viral replication pre-infected with virus followed by compound addition and measured after 72 hrs by inverted microscopic analysis. The class given is functional, organism-based. As to conditions: Severe acute respiratory syndrome coronavirus 2, 107, Vero C1008, 72 h.

A short description of series [3]: Selectivity index, ratio of CC50 for cytotoxicity against African green monkey Vero E6 cells to EC50 for antiviral activity against SARS-CoV-2 107 infected in African green monkey Vero E6 cells. The class given is toxicity, cell-based. As to conditions: read-out: Ratio CC50/EC50.
Series [4] deals with SARS-CoV-2. Nature of the series: Antiviral activity against SARS-CoV-2 107 infected in African green monkey Vero E6 cells assessed as increase in cell survival rate at 50 uM pre-infected with virus followed by compound addition for 2 hrs and measured after 72 hrs by MTT assay. As to conditions: Severe acute respiratory syndrome coronavirus 2, time 74.0 hrs. The format is functional, organism-based. On the technique in general: Formazan colour is commonly taken as a measure of viable cells.

Series [5] deals with Nucleoprotein (Severe acute respiratory syndrome coronavirus 2) (UniProt P0DTC9). As to the kind of experiment: Inhibition of ssRNA binding to SARS-CoV-2 N-pro at 100 uM by MST analysis relative to control.
Series [6] in a line: Cytotoxicity against African green monkey Vero E6 cells after 72 hrs by CCK8 assay. The class given is toxicity, cell-based, Vero C1008. The note with it: chlorocebus sabaeus.
Series [7] has as its target T1, Nucleoprotein. Nature of the series: Binding affinity to wild type SARS-CoV-2 N-pro assessed as dissociation constant by MST analysis.
Series [8] relates to SARS-CoV-2. As to the kind of experiment: Antiviral activity against SARS-CoV-2 107 infected in African green monkey Vero E6 cells assessed as inhibition of virus induced cytopathic effect by neutral red staining based analysis. The class given is functional, organism-based. The note with it: Severe acute respiratory syndrome coronavirus 2, time 74.0 hrs. On the technique in general: Protection from cytopathic effect is a common read-out in antiviral testing.

The target in series [9] is T1, Nucleoprotein. As to the kind of experiment: Binding affinity to SARS-CoV-2 N-pro assessed as dissociation constant by MST analysis.
The target of series [10] is T1, Nucleoprotein. As to the kind of experiment: Binding affinity to SARS-CoV-2 N-pro assessed as dissociation constant in presence of ssRNA by MST analysis.

Calls of active or inactive are those of the source. No cut-off for these calls is given here. Bounds are passed on as bounds.

With `CCN1Cc2cc(OC)c(OC)cc2-c2cccc(NC(=O)Cc3ccccc3)c21`, the Kd on Nucleoprotein [1] worked out at 5.31 µM. Still for that read-out and setting: as for `CCn1c(=O)c2cc(OC)c(OC)cc2c2cccc(C3C4=C(CCCC4=O)N(c4ccccc4)C4=C3C(=O)CCC4)c21`, the figure is 168 µM; as for `CCn1c(=O)c2cc(OC)c(OC)cc2c2cccc(/C=N/c3nc[nH]n3)c21`, 63.7 µM. On the same count and under the same terms, as for `CCn1c(=O)c2cc(OC)c(OC)cc2c2cccc(/N=C/c3c4ccccc4cc4ccccc34)c21`, the figure is 9.71 µM; as for `CCN1Cc2cc(OC)c(OC)cc2-c2cccc(Nc3ccc4c(c3)oc3ccccc34)c21`, 44.1 µM; as for `CCn1c(=O)c2cc(OC)c(OC)cc2c2cccc(NS(=O)(=O)c3ccc(Cl)cc3)c21`, 5.27 µM.

For `CCN1Cc2cc(OC)c(OC)cc2-c2cccc(Nc3ncnc4c3nnn4Cc3ccccc3)c21`, the EC50 in the series with SARS-CoV-2 [2] was 11.3 µM. In addition, the selectivity ratio in series [3] is above 17.7. In addition, the outcome with SARS-CoV-2 [4] and in the series on SARS-CoV-2 [8] was Active. In [5], this molecule came in with an inhibition of 100%. This molecule yielded a CC50 at 72 h in [6] above 200 µM. For the same molecule, the Kd stood at 5.4 µM on Nucleoprotein [7], 0.73 µM at Nucleoprotein [9], 0.35 µM at Nucleoprotein [1] and 83.7 µM at Nucleoprotein [10].

Regarding `CCN1Cc2cc(OC)c(OC)cc2-c2cccc(NCc3ccc(C4(C(F)(F)F)N=N4)cc3)c21`, the Kd at Nucleoprotein [1] was 37 µM. In the case of `CCn1c(=O)c2cc(OC)c(OC)cc2c2cccc(/C=N/C3C=CNN3)c21` (stereo unspecified), the Kd on Nucleoprotein [1] was 2.53 µM. On the same count and under the same terms, as for `CCN1Cc2cc(OC)c(OC)cc2-c2cccc(NC(=O)c3cc([N+](=O)[O-])cc([N+](=O)[O-])c3)c21`, the figure is 37.9 µM; as for `CCN1Cc2cc(OC)c(OC)cc2-c2cccc(NCc3csc4ccc(Cl)cc34)c21`, 97.7 µM; as for `CCN1Cc2cc(OC)c(OC)cc2-c2cccc(NC(=O)Nc3cccc4c3N(CC)Cc3cc(OC)c(OC)cc3-4)c21`, 4.58 µM.

As usually defined, the Kd is the concentration at which binding is half-saturated. What is called EC50 is the concentration at which the effect is half-maximal. In general, inhibition refers to the relative decrease from the control value, in per cent. As usually defined, the CC50 is the concentration at which the toxic effect on the cells reaches its halfway point.
